In patent US20240190847A1, “INDOLINE DERIVATIVES AS DDR1 AND DDR2 INHIBITORS” (CHIESI FARMACEUTICI S.P.A., priority 2021, published 2024) one finds IC50 and Ki data, which are given here for six compounds.

For one experiment, the system named is DDR1 receptor. Briefly: DDR1 cell based assay (PathHunter U2OS DDR1). The settings on record: U2OS-DDR1 cells, bovine Type II Collagen 20 μg/ml stimulation. As for the experimental part:
The inhibition of DDR1 receptor activation by compounds was evaluated by PathHunter® U2OS DDR1 assay (Eurofins DiscoverX), according to the manufacturer's instructions. Briefly, U2O5-DDR1 cells were seeded in white 384-well plates at a density of 5000 cells/well and incubated for 2 hours at 37° C. and 5% CO2. Cells were then treated with compounds at different concentrations and incubated for 30 minutes, before stimulation with bovine Type II Collagen 20 μg/ml and incubation overnight at 37° C. and 5% CO2. PathHunter Detection Reagents were prepared according to the protocol provided by DiscoverX and 20 μl/well of this mix were added to each well. After incubating the plates for 1 hour at room temperature in the dark, luminescence signal was acquired with a plate reader. Raw data were normalized to vehicle control (0% for normalization) and positive control (100% for normalization; cells treated with 20 μg/ml collagen II) and IC50 parameters were calculated in GraphPad Prism 8.0 software, using sigmoidal dose-response curve fitting with variable slope.

The next experiment deals with DDR1. In words: DDR1 LanthaScreen Europium Kinase Binding assay. As to conditions: 5 nM DDR1, 1 hour at room temperature, Ki from IC50 by Cheng-Prusoff, read-out: Ki DDR1. As for the experimental part: (§1) DDR1 and DDR2 binding assays were performed using Life Technologies LanthaScreen™ Europium Kinase Binding assay. The compounds were incubated with 5 nM DDR1 (Carna Biosciences) or 5 nM DDR2 (Life Technologies) for 1 hour at room temperature in white 384-well OptiPlate (PerkinElmer), containing 20 nM or 10 nM Kinase Tracer 178 respectively and 2 nM Europium labelled anti-GST antibody (Life Technologies) in assay buffer (50 mM HEPES pH 7.5, 10 mM MgCl2, 1 mM EGTA and 0.01% BRIJ35). The ratio of fluorescence emission 665 nm/615 nm after excitation at 340 nm was obtained using the Tecan Spark 20M plate reader. IC50 values were determined in GraphPad Prism 8.0 software, using 4 parameter model: log(inhibitor) vs. response. IC50 values were converted in Ki using the Cheng-Prusoff equation (Ki=IC50/(1+[Tracer]/Kd).
In general terms: Time-resolved FRET reads energy transfer from a long-lived donor to a nearby acceptor.

The target in experiment [1] is DDR2. In words: DDR2 LanthaScreen Europium Kinase Binding assay. As to conditions: 5 nM DDR2, 1 hour at room temperature, Ki from IC50 by Cheng-Prusoff, read-out: Ki DDR2. As for the experimental part: as §1
The subject of experiment [2] is DDR2. Briefly: DDR2 cell based assay (phospho-ELISA in HEK293T-DDR2 cells). Also on record: species or system human. As to conditions: DDR2 phosphorylation, bovine Type II Collagen 50 μg/ml, read-out: IC50DDR2. As for the experimental part:
The inhibition of DDR2 phosphorylation by compounds was evaluated in HEK293T-DDR2 recombinant cells by phospho-ELISA assay. Briefly, HEK293T-DDR2 cells were seeded in poly-D-lysine-coated 24-well plates at a density of 250.000 cells/well and incubated for 1.5 hours at 37° C. and 5% CO2 in DMEM+10% FBS. After that, the medium was changed to serum-free DMEM and cells were incubated for 3 hours. Then. test compounds were added at different concentrations 30 minutes before stimulation with bovine Type II Collagen at 50 μg/ml for further 3 hours. For DDR2 phospho-ELISA assay (DuoSet IC Human Phospho-DDR2; R&D Systems), protein extracts were obtained by adding 60 μl/well of lysis buffer prepared according to the manufacturer's instructions.
Protein concentration in the samples was determined by BCA assay and the levels of phospho-DDR2 were determined following R&D Systems indications. Raw data were normalized to maximal inhibition control (0% for normalization) and positive control (100% for normalization; cells treated with 20 μg/ml collagen II) and IC50 parameters were calculated in GraphPad Prism 8.0 software, using sigmoidal dose-response curve fitting with variable slope.

Structures are written as SMILES.

Take `CN1CCN(Cc2cc(C(=O)Nc3ccc4c(c3)N(Cc3cnc(Nc5cnn(C)c5)nc3)CC4)cc(C(F)(F)F)c2)CC1` [Example 4, N-(1-((2-((1-methyl-1H-pyrazol-4-yl)amino)pyrimidin-5-yl)methyl)indolin-6-yl)-3-((4-methylpiperazin-1-yl)methyl)-5-(trifluoromethyl)benzamide]: the IC50 with DDR1 receptor and with DDR2 [2] was less than 0.025 µM in each case. Further, the Ki on DDR1 and on DDR2 [1] was less than 0.025 µM throughout.

Consider `CC(=O)Nc1ccc(CN2CCc3ccc(C(=O)Nc4ccc(CN5CCN(C)CC5)c(C(F)(F)F)c4)cc32)cn1` [Example 13, 1-((6-acetamidopyridin-3-yl)methyl)-N-(4-((4-methylpiperazin-1-yl)methyl)-3-(trifluoromethyl)phenyl)indoline-6-carboxamide], for which the results for the IC50 with DDR1 receptor and with DDR2 [2] were less than 0.025 µM and 0.05 to 0.08 µM, respectively. In addition, the figures for the Ki on DDR1 and at DDR2 [1] were less than 0.025 µM and 0.025 to 0.05 µM, respectively.

As to `CNc1ccc(CN2CCc3ccc(C(=O)Nc4ccc(CN5CCN(C)CC5)c(C(F)(F)F)c4)cc32)cn1` [Example 14, 1-((6-(methylamino)pyridin-3-yl)methyl)-N-(4-((4-methylpiperazin-1-yl)methyl)-3-(trifluoromethyl)phenyl)indoline-6-carboxamide], the values for the IC50 in the experiment on DDR1 receptor and in the experiment on DDR2 [2] were less than 0.025 µM and 0.05 to 0.08 µM, respectively. For the same compound, the Ki – broadly, a dissociation constant, usually derived from enzyme kinetics or from competition with a known ligand – on DDR1 was less than 0.025 µM; on DDR2 [1] it was 0.025 to 0.05 µM.

`CN1CCN(Cc2cc(C(=O)Nc3ccc4c(c3)N(Cc3nccnc3N)CC4)cc(C(F)(F)F)c2)CC1` [Example 5, N-(1-((3-aminopyrazin-2-yl)methyl)indolin-6-yl)-3-((4-methylpiperazin-1-yl)methyl)-5-(trifluoromethyl)benzamide]: the IC50 in the experiment on DDR1 receptor is less than 0.025 µM; in the experiment on DDR2 [2], 0.025 to 0.05 µM. The Ki at DDR1 and at DDR2 [1] was less than 0.025 µM throughout.

In the case of `CN1CCN(Cc2cc(NC(=O)c3ccc4c(c3)N(Cc3cnc(Nc5cnn(C)c5)nc3)CC4)cc(C(F)(F)F)c2)CC1` [Example 18, 1-((2-((1-methyl-1H-pyrazol-4-yl)amino)pyrimidin-5-yl)methyl)-N-(3-((4-methylpiperazin-1-yl)methyl)-5-(trifluoromethyl)phenyl)indoline-6-carboxamide], the IC50 with DDR1 receptor and in the experiment with DDR2 [2] was less than 0.025 µM throughout. Besides, the Ki on DDR1 and at DDR2 [1] was less than 0.025 µM each time.

Consider `COCCn1cc(Nc2ncc(CN3CCc4ccc(C(=O)Nc5cccc(C(F)(F)F)c5)cc43)cn2)cn1` [Example 16, 1-((2-((1-(2-methoxyethyl)-1H-pyrazol-4-yl)amino)pyrimidin-5-yl)methyl)-N-(3-(trifluoromethyl)phenyl)indoline-6-carboxamide], for which the IC50 in the experiment on DDR1 receptor and in the experiment on DDR2 [2] was less than 0.025 µM each time. The Ki at DDR1 and on DDR2 [1] was less than 0.025 µM throughout.
